3 molecules from patent US20090208970A1, “Probe for detection and quantification of inositol-1,4,5-trisphosphate and a method for detecting and quantifying inositol-1,4,5-trisphosphate using the same” (priority 2004, published 2009) can be followed below.

The structures appear in SMILES notation.

Holding throughout (format): cell-based
The subject of assay [1] is purine receptor of the MDCK cell. As to the kind of experiment: ATP-dependent IP3 generation in MDCK cells visualized with the probe. Here is the method: FIG. 2 is visualization of ATP-dependent IP3 generation in MDCK cells using the probe of this invention. (a), 100 μM ATP; (b), […]; and (c), 1 μM ATP.
(§1) cDNA encoding a probe for IP3 detection and quantification (FIG. 1) was prepared by a genetic engineering method, and introduced into MDCK cell. Expression of the probe in the cytoplasm was confirmed since fluorescence was observed from the cells with a fluorescence microscope.
An increase in fluorescence intensity ratio (CFP/YFP) was observed by stimulating a purine receptor of the MDCK cell as obtained in Example 1 with 100 μM ATP (FIG. 2a).

The test system of a further assay is MDCK cell nucleus. As to the kind of experiment: IP3 generation in the MDCK cell nucleus with nuclear-localized probe. The settings on record: 100 μM ATP stimulation, probe with nuclear localization sequence in nucleus, FIG. 4. The source says:
The probe was linked with the nuclear localization sequence of SEQ ID NO: 4 at the C terminal thereof, and expressed in MDCK cell.

Assay [2] concerns the target T1, probe for IP3 detection and quantification expressed in MDCK cell (Homo sapiens, UniProt Q14643).
T1 construct: a region from 224th amino acid to 579th amino acid of the type 1 IP3 receptor; expressed in transfected cells; host or cells: MDCK cells
As to the kind of experiment: IP3 microinjection into MDCK cell expressing the FRET probe. The note with it: each introduction of a small amount of IP3 by microinjection. The method, then:
as §1
Into the MDCK cell expressing the probe as obtained in Example 1, IP3 was introduced by a microinjection method.

The test system of assay [3] is neuron prepared from hippocampus of a rat embryo. As to the kind of experiment: IP3 kinetics in neuron expressing the probe on glutamate stimulation. The note with it: 20 μM glutamate stimulation, cell body and dendrites, FIG. 3. The source says:
The probe was expressed in a neuron prepared from hippocampus of a rat embryo, and IP3 kinetics in the neuron was observed.

T1 sequence (Q14643 224-579): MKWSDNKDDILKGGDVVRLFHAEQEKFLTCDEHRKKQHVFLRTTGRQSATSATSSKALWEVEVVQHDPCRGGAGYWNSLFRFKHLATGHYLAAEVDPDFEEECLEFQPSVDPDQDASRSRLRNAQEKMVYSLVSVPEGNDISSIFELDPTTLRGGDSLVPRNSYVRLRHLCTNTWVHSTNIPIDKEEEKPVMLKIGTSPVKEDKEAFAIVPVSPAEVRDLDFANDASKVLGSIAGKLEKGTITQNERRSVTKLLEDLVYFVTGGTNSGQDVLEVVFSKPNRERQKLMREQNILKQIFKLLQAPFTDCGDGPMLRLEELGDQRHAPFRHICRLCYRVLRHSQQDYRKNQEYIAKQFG

Take `Nc1ncnc2c1ncn2[C@@H]1O[C@H](COP(=O)(O)OP(=O)(O)OP(=O)(O)O)[C@@H](O)[C@H]1O` [ATP]: the “response of the probe” value was “a response of the probe was also observed depend on ATP concentration” in assay [1] (1 μM ATP stimulation, FIG. 2c) and “a response of the probe was also observed depend on ATP concentration” in assay [1] (10 μM ATP stimulation, FIG. 2b). In addition, the “fluorescence intensity ratio (CFP/YFP)” value in assay [1] (100 μM ATP stimulation, FIG. 2a) is listed as “increase”. Further, the IP3 concentration entry in the assay with MDCK cell nucleus is reported as “temporally increased”.
On to `O=P(O)(O)O[C@@H]1[C@H](O)[C@H](O)[C@@H](OP(=O)(O)O)[C@H](OP(=O)(O)O)[C@H]1O` [IP3, Inositol-1,4,5-trisphosphate], for which, in assay [2], the “CFP/YFP fluorescence intensity ratio” value is “stepwise increased and saturated soon”.
Take `N[C@@H](CCC(=O)O)C(=O)O` [glutamate]: in assay [3], the IP3 concentration result is “temporally increased in not only the cell body but also the dendrites”.
